The assay has as its system IDO and TSG6. Put plainly: qRT-PCR of IDO and TSG6 expression in primed mesenchymal stem cells (joint statements). Format: cell-based. As to conditions: 24 hours; for expression of IDO and TSG6 compared to untreated control group 0: Table 1 groups, FIG. 4; for lowest effective concentration capable of inducing significantly increased expression of both TSG6 and IDO: tested 5, 10, 20 ng/ml (TNF-α, IFN-γ) and 10, 20, 40 ng/ml (IFN-α), FIGS. 1-3. Here is the method: In a 37° C. and 5% CO2 incubator, mesenchymal stem cells in a storage state (LN2 tank storage) were thawed and cultured, and at this time, the cells were cultured in a medium (DMEM, alpha-MEM) containing 10% FBS or 4% hPL until proliferated to a cell confluence of about 80%. The cultured mesenchymal stem cells were seeded in a 100 mm dish, and treated with candidate substances for reinforcing the functions of the mesenchymal stem cells for 24 hours, and then the concentrations of primary candidate substances for reinforcing the functions were set.
TNF-α and IFN-γIFN-α were selected as the primary candidate substances, and in order to confirm the lowest effective concentration capable of increasing the expression of TNFα-stimulated gene-6 (TSG6) and indoleamine 2,3-dioxygenase (IDO) to confirm the reinforced functions, the stem cells were treated with 5, 10, and 20 ng/ml of TNF-α, 5, 10, and 20 ng/ml of IFN-γ, and 10, 20, and 40 ng/ml of IFN-α, respectively, and changes in expression of TSG6 and IDO were confirmed.
The IDO was known as an immunomodulatory factor that inhibited the proliferation of immune cells such as T cells by converting tryptophan, which was essential for T cell proliferation, into kynurenine, and the TSG6 was known as an anti-inflammatory regulator secreted by mesenchymal stem cells. After culturing the stem cells, total RNA was isolated using TRIzol (Invitrogen), and then cDNA was synthesized from total RNA using PrimeScriptTMRT reagent Kit with gDNA Eraser (TaKaRa), and qRT-PCR was performed. The results of TSG6 and IDO according to the concentration of each candidate substance were illustrated in FIGS. 1, 2 and 3.
Through Example 1, candidate substances and concentration combinations thereof selected to search for more functionally reinforced compositions based on the candidate substances and the lowest effective concentrations confirmed to induce the reinforced functions of stem cells were set as shown in Table 1. Mesenchymal stem cells were treated with the candidate combinations described in Table 1 below for 24 hours, and the stem cells were cultured as in Example 1, and then total RNA was isolated using TRIzol (Invitrogen). Then, qRT-PCR was performed by synthesizing cDNA from total RNA using the PrimeScript™ RT reagent Kit with gDNA Eraser (TaKaRa).
Vitamins were known to improve the proliferative ability of stem cells and maintain the stemness of stem cells when added during a stem cell culture process. Accordingly, various vitamins were treated in the stem cell culture process, and experiments were performed to confirm whether or not vitamins could achieve anti-inflammatory and immune function reinforcing effects of stem cells. Specifically, the stem cells were treated with various types of vitamins shown in Table 2 according to the method described in Example 1, and the results of confirming changes in expression of IDO and TSG6 according to treatment with each candidate substance were illustrated in FIG. 5.
On the technique in general: Quantitative PCR measures a nucleic acid by following its amplification.

Turning to “IFN-γ: cytokine, primary candidate substance for priming stem cells, 10 ng/ml”, the “expression of IDO and TSG6 compared to untreated control group 0” value was “increased expression of IDO and TSG6”; the “lowest effective concentration capable of inducing significantly increased expression of both TSG6 and IDO” value worked out at 10 ng/mL.

For IFN-α, the “expression of IDO and TSG6 compared to untreated control group 0” value was “increased expression of IDO and TSG6”; the “lowest effective concentration capable of inducing significantly increased expression of both TSG6 and IDO” value was 20 ng/mL.

Turning to TNF-α, the “expression of IDO and TSG6 compared to untreated control group 0” value was “increased expression of IDO and TSG6”; the “lowest effective concentration capable of inducing significantly increased expression of both TSG6 and IDO” value worked out at 10 ng/mL.

These data come from US20240052316A1, “STEM CELL PRIMING COMPOSITION AND PRIMED STEM CELL” (SCM LIFESCIENCE CO., LTD., priority 2020, published 2024).
